Results taken from patent US20040023884A1, “Biologically active peptides from functional domains of bactericidal/permeability-increasing protein and uses thereof” (priority 1993, published 2004).
Ends that are not written are not given here.

Key:
[1] = test system: LPS-induced TNF production in whole blood; test: Inhibition of LPS-induced TNF production in whole blood; type: cell-based; conditions: LPS-induced TNF production in human whole blood, E. coli 0113 LPS, 4 h at 37° C.
Procedure: LPS neutralization by BPI functional domain peptides of the invention was assayed in whole blood as follows. Freshly drawn blood from healthy human donors was collected into vacutainer tubes (ACD, Rutherford, N.J.) Aliquots of blood (170 μL) were mixed with 10 μL Ca^++-, Mg^++-free PBS containing 2.5 ng/mL E. coli 0113 LPS, and with 20 μL of varying concentrations of the BPI peptides of the invention ranging in concentration from 0.5-50 μg/mL. These mixtures were then incubated for 4 h at 37° C., and then the reaction stopped by the addition of 55 μL ice-cold Ca^++-, Mg^++-free PBS, followed by centrifugation at 500×g for 7 min. Supernatants were then assayed for TNF levels using a commercial ELISA kit (Biokine™ ELISA Test, T-cell Sciences, Cambridge. MA).

[2] = test system: LPS-stimulated NO production by RAW 264.7 cells; test: LPS-stimulated NO production by RAW 264.7 cells; type: cell-based, mouse; conditions: for IC50 NO assay: LPS-stimulated NO production by RAW 264.7 cells
Method in brief: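 Mouse RAW 264.7 cells stimulated 2 h with E. coli 0113 LPS or zymosan, with or without γ-interferon, rLBP, FBS, NHS or rBPI21Δcys, then washed and cultured overnight in 10% FCS medium. Nitrite in the medium measured by Griess reaction at 550 nm; NO estimated from a standard curve.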

[3] = test system: LPS-stimulated TNF production in THP-1 cells; test: LPS neutralization by TNF cellular toxicity assay (THP-1 / L929 cells); type: cell-based, human; conditions: 5 ng/mL LPS
Excerpt: A screening assay for LPS neutralization was developed using a tumor necrosis factor (TNF) cellular toxicity assay. A human monocytic cell line (THP-1; accession number TIB202, American Type Culture Collection, Rockville, Md.) grown in media supplemented with Vitamin D produce TNF upon stimulation with LPS in a dose-dependent fashion. Mouse fibroblasts (L929 cells; ATCC No.: CCL1) are sensitive to TNF-mediated cell killing, and this cell killing is also dose-dependent. Thus, the extent of cell killing of L929 cells provides a sensitive assay for the degree of TNF induction in THP-1 cells, which in turn is a sensitive indicator of the amount of free LPS in contact with the THP-1 cells. LPS binding and neutralization by BPI functional domain peptides or rBPI23 reduces the amount of free LPS in contact with THP-1 cells, which reduces the amount of TNF produced, which in turn reduces the amount of L929 cell killing in a standardized assay. Thus, the following assay provides a sensitive method for assessing the LPS binding and neutralization capacity of the BPI functional domain peptides of this invention.
THP-1 cells were grown in RPMI media (GIBCO, Long Island, N.Y.) supplemented with 10% FCS and Vitamin D in spinner culture for 3 days to a density of about 150,000 cells/mL. Cells were then plated in a round-bottomed 96-well culture plate at a density of 100,000 cells/well and incubated in RPMI media without Vitamin D or FCS in the presence of 5 ng/mL E. coli 01113 LPS for 6 hr at 37° C. Experimental control wells also contained varying amounts of rBPI23 or BPI functional domain peptides, in concentrations varying from about 0.1 μg/mL to about 100 μg/mL. After this incubation, the plates were centrifuged at about 600×g to pellet the cells, and 50 μL of the supernatant were added to a 96-well flat bottomed culture dish prepared in parallel with 50,000 L929 cells per well in 50 μL RPMI/10% FCS.
L929 cells were prepared by monolayer growth in RPMI/10% FCS media to a density of about 1 million cells per dish, then split 1:2 on the day before the experiment and allowed to grow overnight to about 70% confluence on the day of the experiment. Actinomycin D was added to the 70% confluent culture to a final concentration of 1 μg/mL 20 min prior to plating in 96-well plates. L929 cell plates were incubated in the presence of the THP-1 supernatant for about 16 hr (overnight) at 37° C. under standard conditions of mammalian cell growth. To each well was then added […] of a solution prepared by diluting 100 μL of phenazine methylsulfonate in 2 mL CellTitre 96™ AQueous solution (Promega, Madison, Wis.), containing 3-[(4,5-dimethyl)-thiozol-2-yl]-5-(3-carboxymethoxyphenyl)-2-(4-sulfonyl)-2H-tetrazolium (inner salt). The cultures were allowed to incubate for 2-4 hr at 37° C. and then analyzed spectrophotometrically to determine the optical absorbance at 490 nm (A490). Experimental results were evaluated relative to a semilog standard curve prepared with known amounts of TNF, varying from about 10 ng/mL to about […].

KSKVGWLIQLFHKK-NH2 (C-terminus assumed) [BPI.13]
IC50 TNF assay [1]: 42 µg/mL
inhibition of LPS-stimulated NO production (in words) [2]: detectable levels of LPS neutralization
IC50 NO assay [2]: 16 µg/mL
IC50 (LPS-stimulated TNF production, L929 cell killing) [3]: 20 µg/mL

KSKVGWLIQLFHKKKSKVGWLIQLFHKK-NH2 (C-terminus assumed) [BPI.29]
IC50 TNF assay [1]: 5.0 µg/mL
inhibition of LPS-stimulated NO production (in words) [2]: detectable levels of LPS neutralization
IC50 NO assay [2]: 2.4 µg/mL
IC50 (LPS-stimulated TNF production, L929 cell killing) [3]: 2 to 3 µg/mL

KWKAAARFLKKWKAAARFLK [BPI.48]
IC50 (LPS-stimulated TNF production, L929 cell killing) [3]: 1 µg/mL

KWKAQKRFLKKSKVGWLIQLFHKK-NH2 (C-terminus assumed) [BPI.30]
inhibition of LPS-stimulated NO production (in words) [2]: detectable levels of LPS neutralization
IC50 (LPS-stimulated TNF production, L929 cell killing) [3]: 6 to 7 µg/mL

KWKAQKRFLKKWKAQKRFLK-NH2 (C-terminus assumed) [BPI.7]
IC50 TNF assay [1]: Not Inhibitory
IC50 NO assay [2]: Not Inhibitory
IC50 (LPS-stimulated TNF production, L929 cell killing) [3]: 30 µg/mL

NVGLKFSISNANIKISGKWKAQKRFLK [BPI.3]
inhibition of LPS-stimulated NO production (in words) [2]: detectable levels of LPS neutralization
